Reference: ChEMBL document CHEMBL6134890, “Terminally Symmetric β-Turn Peptides for Multidrug-Resistant Bacterial Infections” (J Med Chem, 2025)
Values after ≈ are worked out from the molar mass of the structure shown. Active and inactive are the calls of the source. No cut-off for these calls is given here. Peptide text beside a SMILES is read from it.

What was measured:
Staphylococcus aureus [1] = experiment: Antimicrobial activity against multi-drug resistant Staphylococcus aureus assessed as reduction in bacterial growth by broth dilution method; format: functional
[2] = system: Staphylococcus epidermidis; experiment: Antimicrobial activity against multi-drug resistant Staphylococcus epidermidis assessed as reduction in bacterial growth by broth dilution method; format: functional
Enterococcus faecalis = experiment: Antimicrobial activity against multi-drug resistant Enterococcus faecalis assessed as reduction in bacterial growth by broth dilution method; format: functional
Escherichia coli [3] = experiment: Antimicrobial activity against Escherichia coli ATCC 25922 assessed as reduction in bacterial growth by broth dilution method; format: functional
Escherichia coli [4] = experiment: Antimicrobial activity against multi-drug resistant Escherichia coli assessed as reduction in bacterial growth by broth dilution method; format: functional
[5] = Hemolytic activity in human Red blood cell assessed as hemolysis incubated for 1 hrs by microplate reader based analysis; format: toxicity; details: erythrocyte
Staphylococcus aureus [6] = experiment: Antimicrobial activity against multi-drug resistant Staphylococcus aureus assessed as reduction in bacterial growth in presence of KCl; format: functional, organism-based
Staphylococcus aureus [7] = experiment: Antimicrobial activity against multi-drug resistant Staphylococcus aureus assessed as reduction in bacterial growth in presence of MgCl2; format: functional, organism-based
Escherichia coli [8] = experiment: Antimicrobial activity against multi-drug resistant Escherichia coli assessed as reduction in bacterial growth in presence of KCl; format: functional, organism-based
Escherichia coli [9] = experiment: Antimicrobial activity against multi-drug resistant Escherichia coli assessed as reduction in bacterial growth in presence of MgCl2; format: functional, organism-based
Staphylococcus aureus [10] = experiment: Antimicrobial activity against multi-drug resistant Staphylococcus aureus assessed as reduction in bacterial growth measured after 6 hrs in 25% plasma; format: functional, organism-based
[11] = Half life of the compound in 25% plasma; format: ADME, cell-free
Escherichia coli [12] = experiment: Antibacterial activity against Escherichia coli […] at sub-inhibitory concentration measured after 15 passages for 18 hrs; format: functional, organism-based
Escherichia coli [13] = experiment: Bactericidal activity against multi-drug resistant Escherichia coli assessed as eradication of bacterial growth at 2 times MIC by time-kill kinetic assay; format: functional, organism-based; details: time 120-720 min
Staphylococcus aureus [14] = experiment: Bactericidal activity against multi-drug resistant Staphylococcus aureus assessed as eradication of bacterial growth at 2 times MIC measured after 3 hrs by time-kill kinetic assay relative to control; format: functional
Escherichia coli [15] = experiment: Bactericidal activity against multi-drug resistant Escherichia coli assessed as eradication of bacterial growth at 2 times MIC measured after 3 hrs by time-kill kinetic assay relative to control; format: functional
Cell membrane [16] = experiment: Disruption of cell membrane in multi-drug resistant Staphylococcus aureus assessed as stomatal formation at 2 times MIC measured for 120 mins by transmission electron microscopy analysis; format: subcellular
Cell membrane [17] = experiment: Disruption of cell membrane in multi-drug resistant Staphylococcus aureus assessed as cell shrinkage at 2 times MIC measured for 120 mins by transmission electron microscopy analysis; format: subcellular
Cell membrane [18] = experiment: Disruption of cell membrane in multi-drug resistant Staphylococcus aureus assessed as release of cell content at 2 times MIC measured for 120 mins by transmission electron microscopy analysis; format: subcellular
Cell membrane [19] = experiment: Disruption of cell membrane in multi-drug resistant Escherichia coli assessed as stomatal formation at 2 times MIC measured for 120 mins by transmission electron microscopy analysis; format: subcellular
Cell membrane [20] = experiment: Disruption of cell membrane in multi-drug resistant Escherichia coli assessed as appearance of cell shrinkage at 2 times MIC measured for 120 mins by transmission electron microscopy analysis; format: subcellular
Cell membrane [21] = experiment: Disruption of cell membrane in multi-drug resistant Escherichia coli assessed as release of cell content at 2 times MIC measured for 120 mins by transmission electron microscopy analysis; format: subcellular
Cell membrane [22] = experiment: Disruption of cell membrane in multi-drug resistant Staphylococcus aureus assessed as increase in red fluorescence intensity of PI at 2 times MIC measured for 2 hrs by fluorescence confocal microscopic imaging based analysis; format: subcellular
Cell membrane [23] = experiment: Disruption of cell membrane in multi-drug resistant Escherichia coli assessed as increase in red fluorescence intensity of PI at 2 times MIC measured for 2 hrs by fluorescence confocal microscopic imaging based analysis; format: subcellular
Cell membrane [24] = experiment: Induction of outer membrane permeabilization in multi-drug resistant Escherichia coli assessed as NPN uptake at 1 to 4 times MIC measured within 1 min by fluorescence based analysis; format: subcellular
Cell membrane [25] = experiment: Induction of cytoplasmic membrane depolarization in multi-drug resistant Escherichia coli at 1 to 4 times MIC measured within 1 min by DiSC3-5 fluorescent dye based analysis
Cell membrane [26] = experiment: Induction of cytoplasmic membrane depolarization in multi-drug resistant Staphylococcus aureus at 1 to 4 times MIC measured within 1 min by DiSC3-5 fluorescent dye based analysis
Staphylococcus aureus [27] = experiment: Antibiofilm activity against multi-drug resistant Staphylococcus aureus measured after 24 hrs by crystal violet staining based analysis; format: functional, organism-based
Escherichia coli [28] = experiment: Antibiofilm activity against multi-drug resistant Escherichia coli measured after 24 hrs by crystal violet staining based analysis; format: functional, organism-based
Escherichia coli [29] = experiment: Antibiofilm activity against multi-drug resistant Escherichia coli at 0.5 times MIC measured after 24 hrs by crystal violet staining based analysis; format: functional, organism-based
Staphylococcus aureus [30] = experiment: Antibiofilm activity in methicillin-resistant Staphylococcus aureus assessed as eradication of formed biofilm by measuring reduction in viable bacterial count measured after 12 hrs by confocal microscopy based analysis; format: functional, organism-based
Escherichia coli [31] = experiment: Antibiofilm activity in […] assessed as eradication of formed biofilm by measuring reduction in viable bacterial count measured after 12 hrs by confocal microscopy based analysis; format: functional, organism-based
Staphylococcus aureus [32] = experiment: Antibiofilm activity in methicillin-resistant Staphylococcus aureus assessed as eradication of formed biofilm at 1 to 4 times MIC measured after 12 hrs by confocal microscopy based analysis; format: functional, organism-based
Escherichia coli [33] = experiment: Antibiofilm activity in […] assessed as eradication of formed biofilm at 1 to 4 times MIC measured after 12 hrs by confocal microscopy based analysis; format: functional, organism-based
Staphylococcus aureus [34] = experiment: Additive antimicrobial activity against multi-drug resistant Staphylococcus aureus assessed as fractional inhibition concentration index in presence levofloxacin by microplate reader analysis; format: functional
Escherichia coli [35] = experiment: Antibacterial activity against multidrug resistant Escherichia coli infected in male Kunming mouse model assessed as recovery of mouse weight measured after 11 days; format: functional, organism-based; details: time 11.0 day
Escherichia coli [36] = experiment: Antibacterial activity against Escherichia coli ATCC 25922 infected in male Kunming mouse model assessed as reduction in bacterial load measured after 11 days in presence of levofloxacin; format: functional, organism-based; details: time 11.0 day
Escherichia coli [37] = experiment: Antibacterial activity against multidrug resistant Escherichia coli infected in male Kunming mouse model assessed as reduction in bacterial load measured after 11 days in presence of levofloxacin; format: functional, organism-based; details: time 11.0 day
Escherichia coli [38] = experiment: Antibacterial activity against multidrug resistant Escherichia coli infected in male Kunming mouse model assessed as recovery of mouse weight measured after 11 days in presence of levofloxacin; format: functional, organism-based; details: time 11.0 day
Escherichia coli [39] = experiment: Antibacterial activity against multidrug resistant Escherichia coli infected in male Kunming mouse model assessed as scabs thickening measured after 7 days in presence of levofloxacin by caliper method; format: functional, organism-based; details: time 7.0 day
Escherichia coli [40] = experiment: Antibacterial activity against multidrug resistant Escherichia coli infected in male Kunming mouse model assessed as scabs thickening measured after 7 days by caliper method; format: functional, organism-based; details: time 7.0 day
Escherichia coli [41] = experiment: Antibacterial activity against multidrug resistant Escherichia coli infected in male Kunming mouse model assessed as reduction in vascular congestion in presence of levofloxacin by H and E staining based analysis; format: functional, organism-based
Escherichia coli [42] = experiment: Antibacterial activity against multidrug resistant Escherichia coli infected in male Kunming mouse model assessed as reduction in inflammatory cell infiltration in presence of levofloxacin by H and E staining based analysis; format: functional, organism-based
Escherichia coli [43] = experiment: Antibacterial activity against multidrug resistant Escherichia coli infected in male Kunming mouse model assessed as reduction in IL-6 expression in presence of levofloxacin by immunochemical analysis; format: functional, organism-based

For CC[C@H](C)[C@H](NC(=O)[C@H](CCCCN)NC(=O)[C@@H](NC(=O)[C@H](CCCCN)NC(=O)[C@@H]1CCCN1C(=O)[C@H](Cc1c[nH]c2ccccc12)NC(=O)[C@H](Cc1c[nH]c2ccccc12)NC(=O)[C@H](Cc1c[nH]c2ccccc12)NC(=O)[C@@H]1CCCN1C(=O)[C@H](CCCCN)NC(=O)[C@@H](NC(=O)[C@H](CCCCN)NC(=O)[C@@H](NC(=O)[C@@H](N)CCCCN)[C@@H](C)CC)[C@@H](C)CC)[C@@H](C)CC)C(=O)N[C@@H](CCCCN)C(N)=O (H-KIKIKPWWWPKIKIK-NH2), the MIC (Staphylococcus aureus [1]) was 8 µM (≈ 15.9 µg/mL), the MIC [2] was 4 µM (≈ 7.97 µg/mL) and the MIC (Enterococcus faecalis) was 4 µM (≈ 7.97 µg/mL). The MIC (Escherichia coli [3]) was 4 µM (≈ 7.97 µg/mL), the MIC (Escherichia coli [4]) was 4 µM (≈ 7.97 µg/mL) and the HC10 [5] was greater than 256 µM. For the same molecule, the Activity (Staphylococcus aureus [6]) was “Active”, the Activity (Staphylococcus aureus [7]) was “Active” and the Activity (Escherichia coli [8]) was “Active”. The Activity (Escherichia coli [9]) was “Active”, the Activity (Staphylococcus aureus [10]) was “Active” and the half-life [11] was 75.5 h. The Activity (Escherichia coli [12]) was “Active”, the Activity (Escherichia coli [13]) was “Time-dependent-effect” and the Activity (Staphylococcus aureus [14]) was 100%. For the same molecule, the Activity (Escherichia coli [15]) was 100%, the Activity (Cell membrane [16]) was “Active” and the Activity (Cell membrane [17]) was “Active”. For the same molecule, the Activity (Cell membrane [18]) was “Active”, the Activity (Cell membrane [19]) was “Active” and the Activity (Cell membrane [20]) was “Active”. The Activity (Cell membrane [21]) was “Active”, the Activity (Cell membrane [22]) was “Active” and the Activity (Cell membrane [23]) was “Active”. For the same molecule, the Activity (Cell membrane [24]) was “Active”, the Activity (Cell membrane [25]) was “Active” and the Activity (Cell membrane [26]) was “Active”. The Activity (Staphylococcus aureus [27]) was “Dose-dependent-effect”, the Activity (Escherichia coli [28]) was “Dose-dependent-effect” and the Activity (Escherichia coli [29]) was “Active”. The Activity (Staphylococcus aureus [30]) was “Dose-dependent-effect”, the Activity (Escherichia coli [31]) was “Dose-dependent-effect” and the Activity (Staphylococcus aureus [32]) was “Active”. The Activity (Escherichia coli [33]) was “Active”, the “fractional inhibitory concentration index (FICI)” value (Staphylococcus aureus [34]) was 0.75 and the Activity (Escherichia coli [35]) was “Active”. For the same molecule, the Activity (Escherichia coli [36]) was “Active”, the Activity (Escherichia coli [37]) was “Active” and the Activity (Escherichia coli [38]) was “Active”. The Activity (Escherichia coli [39]) was “Active”, the Activity (Escherichia coli [40]) was “Active” and the Activity (Escherichia coli [41]) was “Active”. For the same molecule, the Activity (Escherichia coli [42]) was “Active” and the Activity (Escherichia coli [43]) was “Active”.
